Results taken from patent publication US20090018111A1, “Novel Antimicrobial Medicament” (priority 2004, published 2009).
Like-named read-outs stand apart in the source and are kept apart here.

Assays:
S. marcescens X 100 = experiment: Sensitivity test (agar dilution); format: cell-based, Serratia marcescens; conditions: Serratia marcescens
Method in brief: (§1)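 Standard Japanese agar dilution method. Drugs alone or combined were serially halved in Mueller Hinton agar, inoculated with overnight (37° C) cultures at about 10^6 CFU/ml. Values are MICs.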

S. marcescens GN6473 = experiment: Sensitivity test (agar dilution); format: cell-based, Serratia marcescens; conditions: Serratia marcescens
Method in brief: as §1

E. faecalis ATCC19433 = experiment: Sensitivity test (agar dilution); format: cell-based, Enterococcus faecalis; conditions: Enterococcus faecalis
Method in brief: as §1

P. aeruginosa TL-2667 = experiment: Sensitivity test (agar dilution); format: cell-based, Pseudomonas aeruginosa; conditions: Pseudomonas aeruginosa
Method in brief: as §1

Str. pyogenes Cook = experiment: Sensitivity test (agar dilution); format: cell-based, Streptococcus pyogenes; conditions: Streptococcus pyogenes
Method in brief: as §1

P. vulgaris GN7919 = experiment: Sensitivity test (agar dilution); format: cell-based, Proteus vulgaris; conditions: Proteus vulgaris
Method in brief: as §1

P. vurgalis OX-19 = experiment: Sensitivity test (agar dilution); format: cell-based, Proteus vulgaris; conditions: Proteus vulgaris
Method in brief: as §1

[1] = test system: S. aureus MS94088 (hetero-MRSA); experiment: Sensitivity test (agar dilution); format: cell-based, Staphylococcus aureus; conditions: Staphylococcus aureus, MRSA
Method in brief: as §1

[2] = test system: S. aureus SP-7928 (homo-MRSA); experiment: Sensitivity test (agar dilution); format: cell-based, Staphylococcus aureus; conditions: Staphylococcus aureus, MRSA
Method in brief: as §1

S. aureus 209P = experiment: Sensitivity test (agar dilution); format: cell-based, Staphylococcus aureus; conditions: Staphylococcus aureus, 209P
Method in brief: as §1

E. coli ML1410 RP4 = experiment: microbe, parasite or virus in culture; format: cell-based, Escherichia coli; conditions: Escherichia coli
Method in brief: as §1

C. freundii GN346 = experiment: Sensitivity test (agar dilution); format: cell-based, Citrobacter freundii; conditions: Citrobacter freundii
Method in brief: as §1

M. luteus ATCC9341 = experiment: Sensitivity test (agar dilution); format: cell-based, Micrococcus luteus; conditions: Micrococcus luteus
Method in brief: as §1

[3] = Concomitant (MEPM:SM = 1:1), read-out: MIC
[4] = Concomitant (MEPM:SM = 1:2), read-out: MIC
[5] = Concomitant (MEPM:SM = 1:4), read-out: MIC
[6] = Concomitant drug (MEPM:SM = 2:1), read-out: MIC

## C[C@@H](O)[C@H]1C(=O)N2C(C(=O)O)=C(S[C@@H]3CN[C@H](C(=O)N(C)C)C3)[C@H](C)[C@H]12 [MEPM, meropenem]
S. marcescens X 100; X100, Concomitant (MEPM:SM = 1:1), read-out: MIC
  MIC: ≤ 0.016 µg/mL
S. marcescens X 100; X100, Concomitant (MEPM:SM = 1:2), read-out: MIC
  MIC: ≤ 0.016 µg/mL
S. marcescens X 100; X100, Concomitant (MEPM:SM = 1:4), read-out: MIC
  MIC: ≤ 0.016 µg/mL
S. marcescens X 100; X100, Concomitant drug (MEPM:SM = 2:1), read-out: MIC
  MIC: 0.031 µg/mL
S. marcescens X 100; X100, alone, read-out: MIC
  MIC: 0.031 µg/mL
S. marcescens GN6473; GN6473, Concomitant (MEPM:SM = 1:1), read-out: MIC
  MIC: 0.031 µg/mL
S. marcescens GN6473; GN6473, Concomitant (MEPM:SM = 1:2), read-out: MIC
  MIC: 0.031 µg/mL
S. marcescens GN6473; GN6473, Concomitant (MEPM:SM = 1:4), read-out: MIC
  MIC: 0.031 µg/mL
S. marcescens GN6473; GN6473, Concomitant drug (MEPM:SM = 2:1), read-out: MIC
  MIC: 0.031 µg/mL
S. marcescens GN6473; GN6473, alone, read-out: MIC
  MIC: 0.063 µg/mL
E. faecalis ATCC19433; ATCC19433, Concomitant (MEPM:SM = 1:1), read-out: MIC
  MIC: 1 µg/mL
E. faecalis ATCC19433; ATCC19433, Concomitant (MEPM:SM = 1:2), read-out: MIC
  MIC: 0.5 µg/mL
E. faecalis ATCC19433; ATCC19433, Concomitant (MEPM:SM = 1:4), read-out: MIC
  MIC: 0.25 µg/mL
E. faecalis ATCC19433; ATCC19433, Concomitant drug (MEPM:SM = 2:1), read-out: MIC
  MIC: 1 µg/mL
E. faecalis ATCC19433; ATCC19433, alone, read-out: MIC
  MIC: 4 µg/mL
P. aeruginosa TL-2667; TL2667, Concomitant (MEPM:SM = 1:1), read-out: MIC
  MIC: 4 µg/mL
P. aeruginosa TL-2667; TL2667, Concomitant (MEPM:SM = 1:2), read-out: MIC
  MIC: 2 µg/mL
P. aeruginosa TL-2667; TL2667, Concomitant (MEPM:SM = 1:4), read-out: MIC
  MIC: 2 µg/mL
P. aeruginosa TL-2667; TL2667, Concomitant drug (MEPM:SM = 2:1), read-out: MIC
  MIC: 4 µg/mL
P. aeruginosa TL-2667; TL2667, alone, read-out: MIC
  MIC: 4 µg/mL
Str. pyogenes Cook; [3]
  MIC: ≤ 0.016 µg/mL
Str. pyogenes Cook; [4]
  MIC: ≤ 0.016 µg/mL
Str. pyogenes Cook; [5]
  MIC: ≤ 0.016 µg/mL
Str. pyogenes Cook; [6]
  MIC: ≤ 0.016 µg/mL
Str. pyogenes Cook; alone, read-out: MIC
  MIC: ≤ 0.016 µg/mL
P. vulgaris GN7919; GN7919, Concomitant (MEPM:SM = 1:1), read-out: MIC
  MIC: 0.031 µg/mL
P. vulgaris GN7919; GN7919, Concomitant (MEPM:SM = 1:2), read-out: MIC
  MIC: 0.031 µg/mL
P. vulgaris GN7919; GN7919, Concomitant (MEPM:SM = 1:4), read-out: MIC
  MIC: 0.031 µg/mL
P. vulgaris GN7919; GN7919, Concomitant drug (MEPM:SM = 2:1), read-out: MIC
  MIC: 0.031 µg/mL
P. vulgaris GN7919; GN7919, alone, read-out: MIC
  MIC: 0.063 µg/mL
P. vurgalis OX-19; OX19, Concomitant (MEPM:SM = 1:1), read-out: MIC
  MIC: ≤ 0.016 µg/mL
P. vurgalis OX-19; OX19, Concomitant (MEPM:SM = 1:2), read-out: MIC
  MIC: ≤ 0.016 µg/mL
P. vurgalis OX-19; OX19, Concomitant (MEPM:SM = 1:4), read-out: MIC
  MIC: ≤ 0.016 µg/mL
P. vurgalis OX-19; OX19, Concomitant drug (MEPM:SM = 2:1), read-out: MIC
  MIC: 0.031 µg/mL
P. vurgalis OX-19; OX19, alone, read-out: MIC
  MIC: 0.063 µg/mL
[1]
  MIC: 0.125 µg/mL
[1]; [3]
  MIC: 0.25 µg/mL
[1]; [5]
  MIC: 0.063 µg/mL
[1]; [6]
  MIC: 0.5 µg/mL
[1]; alone, read-out: MIC
  MIC: 4 µg/mL
[2]; [3]
  MIC: 1 µg/mL
[2]; [4]
  MIC: 1 µg/mL
[2]; [5]
  MIC: 0.5 µg/mL
[2]; [6]
  MIC: 2 µg/mL
[2]; alone, read-out: MIC
  MIC: 32 µg/mL
S. aureus 209P; [3]
  MIC: ≤ 0.016 µg/mL
S. aureus 209P; [4]
  MIC: ≤ 0.016 µg/mL
S. aureus 209P; [5]
  MIC: ≤ 0.016 µg/mL
S. aureus 209P; [6]
  MIC: ≤ 0.016 µg/mL
S. aureus 209P; alone, read-out: MIC
  MIC: 0.063 µg/mL
E. coli ML1410 RP4; ML1410RP4, Concomitant (MEPM:SM = 1:1)
  MIC: ≤ 0.016 µg/mL
E. coli ML1410 RP4; ML1410RP4, Concomitant (MEPM:SM = 1:2)
  MIC: ≤ 0.016 µg/mL
E. coli ML1410 RP4; ML1410RP4, Concomitant (MEPM:SM = 1:4)
  MIC: ≤ 0.016 µg/mL
E. coli ML1410 RP4; ML1410RP4, Concomitant drug (MEPM:SM = 2:1)
  MIC: ≤ 0.016 µg/mL
E. coli ML1410 RP4; ML1410RP4, alone
  MIC: 0.031 µg/mL
C. freundii GN346; GN346, Concomitant (MEPM:SM = 1:1), read-out: MIC
  MIC: 0.031 µg/mL
C. freundii GN346; GN346, Concomitant (MEPM:SM = 1:2), read-out: MIC
  MIC: 0.031 µg/mL
C. freundii GN346; GN346, Concomitant (MEPM:SM = 1:4), read-out: MIC
  MIC: 0.031 µg/mL
C. freundii GN346; GN346, Concomitant drug (MEPM:SM = 2:1), read-out: MIC
  MIC: 0.031 µg/mL
C. freundii GN346; GN346, alone, read-out: MIC
  MIC: 0.063 µg/mL
M. luteus ATCC9341; ATCC9341
  MIC: 0.125 µg/mL
M. luteus ATCC9341; ATCC9341, Concomitant (MEPM:SM = 1:1), read-out: MIC
  MIC: ≤ 0.016 µg/mL
M. luteus ATCC9341; ATCC9341, Concomitant (MEPM:SM = 1:2), read-out: MIC
  MIC: ≤ 0.016 µg/mL
M. luteus ATCC9341; ATCC9341, Concomitant (MEPM:SM = 1:4), read-out: MIC
  MIC: ≤ 0.016 µg/mL
M. luteus ATCC9341; ATCC9341, Concomitant drug (MEPM:SM = 2:1), read-out: MIC
  MIC: ≤ 0.016 µg/mL

## CC(=N)N1CC[C@H](SC2=C(C(=O)O)N3C(=O)[C@H]([C@@H](C)O)[C@H]3C2)C1 [PAPM, panipenem]
S. marcescens X 100; X100, Concomitant (PAPM:SM = 1:1), S. marcescens X 100, read-out: MIC concomitant
  MIC: 0.125 µg/mL
S. marcescens X 100; X100, drug alone, S. marcescens X 100, read-out: MIC alone
  MIC: 0.25 µg/mL
S. marcescens GN6473; GN6473, Concomitant (PAPM:SM = 1:1), S. marcescens GN6473, read-out: MIC concomitant
  MIC: 0.25 µg/mL
S. marcescens GN6473; GN6473, drug alone, S. marcescens GN6473, read-out: MIC alone
  MIC: 0.5 µg/mL
E. faecalis ATCC19433; ATCC19433, Concomitant (PAPM:SM = 1:1), E. faecalis ATCC19433, read-out: MIC concomitant
  MIC: 1 µg/mL
E. faecalis ATCC19433; ATCC19433, drug alone, E. faecalis ATCC19433, read-out: MIC alone
  MIC: 2 µg/mL
P. aeruginosa TL-2667; TL2667, Concomitant (PAPM:SM = 1:1), P. aeruginosa TL-2667, read-out: MIC concomitant
  MIC: 16 µg/mL
P. aeruginosa TL-2667; TL2667, drug alone, P. aeruginosa TL-2667, read-out: MIC alone
  MIC: 16 µg/mL
Str. pyogenes Cook; Concomitant (PAPM:SM = 1:1), Str. pyogenes Cook, read-out: MIC concomitant
  MIC: ≤ 0.002 µg/mL
Str. pyogenes Cook; drug alone, Str. pyogenes Cook, read-out: MIC alone
  MIC: 0.008 µg/mL
P. vulgaris GN7919; GN7919, Concomitant (PAPM:SM = 1:1), P. vulgaris GN7919, read-out: MIC concomitant
  MIC: 0.5 µg/mL
P. vulgaris GN7919; GN7919, drug alone, P. vulgaris GN7919, read-out: MIC alone
  MIC: 1 µg/mL
P. vurgalis OX-19; OX19, Concomitant (PAPM:SM = 1:1), P. vurgalis OX-19, read-out: MIC concomitant
  MIC: 0.063 µg/mL
P. vurgalis OX-19; OX19, drug alone, P. vurgalis OX-19, read-out: MIC alone
  MIC: 1 µg/mL
[1]; Concomitant (PAPM:SM = 1:1), S. aureus MS94088 (hetero-MRSA), read-out: MIC concomitant
  MIC: 0.25 µg/mL
[1]; drug alone, S. aureus MS94088 (hetero-MRSA), read-out: MIC alone
  MIC: 0.5 µg/mL
[2]; Concomitant (PAPM:SM = 1:1), S. aureus SP-7928 (homo-MRSA), read-out: MIC concomitant
  MIC: 2 µg/mL
[2]; drug alone, S. aureus SP-7928 (homo-MRSA), read-out: MIC alone
  MIC: > 32 µg/mL
S. aureus 209P; Concomitant (PAPM:SM = 1:1), S. aureus 209P, read-out: MIC concomitant
  MIC: 0.004 µg/mL
S. aureus 209P; drug alone, S. aureus 209P, read-out: MIC alone
  MIC: 0.031 µg/mL
E. coli ML1410 RP4; ML1410RP4, read-out: MIC alone, drug alone, E. coli ML1410 RP4
  MIC: 0.5 µg/mL
E. coli ML1410 RP4; ML1410RP4, read-out: MIC concomitant, Concomitant (PAPM:SM = 1:1), E. coli ML1410 RP4
  MIC: 0.125 µg/mL
C. freundii GN346; GN346, Concomitant (PAPM:SM = 1:1), C. freundii GN346, read-out: MIC concomitant
  MIC: 0.25 µg/mL
C. freundii GN346; GN346, drug alone, C. freundii GN346, read-out: MIC alone
  MIC: 0.5 µg/mL
M. luteus ATCC9341; ATCC9341, Concomitant (PAPM:SM = 1:1), M. luteus ATCC9341, read-out: MIC concomitant
  MIC: ≤ 0.002 µg/mL
M. luteus ATCC9341; ATCC9341, drug alone, M. luteus ATCC9341, read-out: MIC alone
  MIC: 0.031 µg/mL
